Assay results reported in patent US11806332B2, “Compositions and methods for inhibition of SARS-CoV-2 viral infections” (priority 2020, dated 2023).
Where two headings read alike, the source gives them in different places.

Experiments:
[1] = mice, dose as high as 300 mg/kg/day; cited from earlier work
[2] = tested on: SARS-CoV-2; assay: Live virus-based microneutralization (MN) assay, SARS-CoV-2-induced CPE in Vero E6 cells; format: cell-based; parameters: key to SARS-CoV-2 induced CPE in Vero E6 cells: Cytotoxicity; ND: Both cytotoxicity and CPE are not detected.; SARS-CoV-2 induced CPE; conditions: for SARS-CoV-2 induced CPE in Vero E6 cells: Repeat 1 and 2
[3] = tested on: SARS-CoV-2; format: cell-based; parameters: key: Cytotoxicity; ND: Both cytotoxicity and CPE are not detected.; SARS-CoV-2 induced CPE; conditions: Repeat 1 and 2
[4] = patients, state Cmax; cited from earlier work
[5] = target: M^Pro (Severe acute respiratory syndrome coronavirus 2, UniProt P0DTD1); format: biochemical

SMILES: CC(C)COCC(CN(Cc1ccccc1)c1ccccc1)N1CCCC1 (stereo not drawn) [Bepridil]
- mating behavior and reproductive performance [1]: did not show alteration in mating behavior and reproductive performance
- SARS-CoV-2 induced CPE in Vero E6 cells ([2]; bepridil 0.16 μM): CPE
- SARS-CoV-2 induced CPE in Vero E6 cells ([2]; bepridil 0.31 μM): CPE
- SARS-CoV-2 induced CPE in Vero E6 cells ([2]; bepridil 0.62 μM): CPE
- SARS-CoV-2 induced CPE in Vero E6 cells ([2]; bepridil 1.25 μM): CPE
- SARS-CoV-2 induced CPE in Vero E6 cells ([2]; bepridil 2.5 μM): CPE
- SARS-CoV-2 induced CPE in Vero E6 cells ([2]; bepridil 50 μM): C
- SARS-CoV-2 induced CPE in Vero E6 cells ([2]; bepridil 100 μM): C
- SARS-CoV-2 induced CPE in Vero E6 cells ([2]; bepridil 200 μM): C^a and C
- SARS-CoV-2 induced CPE in ACE2-expressing A549 cells ([3]; bepridil 1.56 μM): CPE
- SARS-CoV-2 induced CPE in ACE2-expressing A549 cells ([3]; bepridil 3.12 μM): CPE
- Cmax [4]: 3.72 µM

SMILES: CC(C)(C)c1ccc(C(=O)CCCN2CCC(OC(c3ccccc3)c3ccccc3)CC2)cc1 [Ebastine]
- Cytopathogenic effect (CPE) [2]: observed

SMILES: Cc1cccc(C)c1OCC(=O)N[C@@H](Cc1ccccc1)[C@@H](O)C[C@H](Cc1ccccc1)NC(=O)[C@H](C(C)C)N1CCCNC1=O [Lopinavir]
- IC50 ([5]; 50 nM M^Pro, 10 μM Sub3, mean ± SE, triplicate): 486 ± 2 µM
- Hill Slope ([5]; Hill coefficient of IC50 curve, four-parameter fit): 29.9 ± 2.4
- Hill Slope ([5]; Hill coefficient of IC50 curve, four-parameter fit, listed as lopinavir): lowest Hill coefficients

SMILES: O=c1[nH]c2ccccc2n1C1CCN(CCCC(c2ccc(F)cc2)c2ccc(F)cc2)CC1 [Pimozide]
- Cytopathogenic effect (CPE) ([2]; Vero E6 cells, all tested concentrations, 0.16 to 200 μM): observed

SMILES: CCOC(=O)/C=C/[C@H](C[C@@H]1CCNC1=O)NC(=O)[C@@H](CC(=O)[C@@H](NC(=O)c1cc(C)on1)C(C)C)Cc1ccc(F)cc1 [Rupintrivir]
- Hill Slope [5]: 1.4 ± 0.2
